Reference: PubChem BioAssay (NCI)
Several values for one entry are separate records, joined by “and”; a condition that tells them apart may be missing. Equal values may be shown once.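 Growth conditions: 96-well plates. Treatment: test compound, 48 hours, 5 concentrations. Analysis: linear interpolation between bracketing concentrations; unreached endpoints set to highest concentration. GI50 marks 50% less growth. TGI is the concentration that stops growth completely.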

How the values were obtained:
Assay in all cases: NCI anticancer screen, dose series, 48 h
SN12C renal = tested on: SN12C renal
EKVX NSCLC = tested on: EKVX NSCLC
HS 578T breast = tested on: HS 578T breast
HCT-15 colon = tested on: HCT-15 colon
OVCAR-8 ovarian = tested on: OVCAR-8 ovarian
SK-MEL-28 melanoma = tested on: SK-MEL-28 melanoma
OVCAR-4 ovarian = tested on: OVCAR-4 ovarian
TK-10 renal = tested on: TK-10 renal
UO-31 renal = tested on: UO-31 renal
SNB-75 CNS = tested on: SNB-75 CNS

Structure (SMILES)	TGI (SN12C renal)	TGI (EKVX NSCLC)	TGI (HS 578T breast)	TGI (HCT-15 colon)	TGI (OVCAR-8 ovarian)	TGI (SK-MEL-28 melanoma)	TGI (OVCAR-4 ovarian)	TGI (TK-10 renal)	TGI (UO-31 renal)	TGI (SNB-75 CNS)	GI50 (UO-31 renal)
COC(=O)[C@H](Cc1ccccc1)NC(=O)CCCCCCC(=O)NO	> 100 µM	> 100 µM	> 100 µM	> 100 µM	> 100 µM	> 100 µM	> 100 µM	72.5 µM	> 100 µM		
CO[C@]12C[C@H](CNC(=O)c3ccc[nH]3)O[C@H]1NC(=O)N2	> 100 µM	> 100 µM	> 100 µM	> 100 µM	> 100 µM			> 100 µM	> 100 µM		
CC(=O)OCc1c(O)c2c(c(O)c1COC(C)=O)C(=O)C=CC2=O	24.2 µM	32 µM		38.1 µM	30.2 µM	22.8 µM	22.7 µM	30 µM	29 µM	33.2 µM	
N#Cc1nc(NC(=O)c2ccccc2C(=O)O)c(C#N)[nH]1	> 100 µM	> 100 µM	> 100 µM		> 100 µM	> 100 µM		> 100 µM	> 100 µM	> 100 µM	
CN(C)CCNC(=O)c1cccc2nc(-c3ccccc3)oc12	> 100 µM	> 55.8 µM		> 100 µM	> 100 µM	> 100 µM	> 100 µM		45.1 µM	> 100 µM	
CCOC(=O)C1CCC(=O)N1C(=O)c1ccccc1 (stereo not drawn)	> 100 µM	> 100 µM	> 100 µM	> 100 µM	> 100 µM	> 100 µM		> 100 µM	> 100 µM		
CC(=O)OC1CCC2C3CCc4c(C)ccc(OS(=O)(=O)c5ccccc5)c4C3CCC12C (stereo not drawn)	> 100 µM	> 100 µM		> 100 µM		> 100 µM	88.4 µM	> 100 µM	50.1 µM		
C1=C\SS/C=C\SS/1	> 100 µM	> 100 µM	> 100 µM	34 µM	49.8 µM	> 100 µM	> 100 µM	> 100 µM	> 100 µM		
CCOC(=O)c1nc2cc(C(F)(F)F)ccc2nc1Nc1ccc(C(=O)NC(C(=O)OCC)C(=O)OCC)cc1	47.2 µM	66.2 µM	37.5 µM	> 100 µM		69.2 µM	33.1 µM	97.4 µM	91.9 µM		
CCCSc1nc(-c2ccc(OC)cc2)c(C#N)c(=O)n1C1OC(COC(C)=O)C(OC(C)=O)C(OC(C)=O)C1OC(C)=O (stereo not drawn)						> 100 µM	> 100 µM		> 100 µM	> 100 µM	> 100 µM and 36.9 µM
C[C@H]1SC(c2ccc(Cl)cc2Cl)N(NC(=O)c2ccncc2)C1=O (stereo partly drawn)	> 100 µM	98.8 µM	> 100 µM	> 100 µM	> 100 µM	> 100 µM			96.1 µM	> 100 µM	
COc1ccc(C2c3cc4c(cc3OC(N3CCOCC3)C2C)OCO4)c(OC)c1OC (stereo not drawn)	> 100 µM	> 100 µM	19.2 µM	> 100 µM	> 100 µM	82 µM		70.5 µM	35.1 µM		
COc1ccc(N(C(=O)Nc2ccc(Cl)c(Cl)c2)C2c3cccn3C(=O)N2c2ccc(Cl)c(Cl)c2)cc1 (stereo not drawn)	> 100 µM	> 100 µM	> 100 µM	> 100 µM	> 100 µM	> 100 µM	> 100 µM	> 100 µM	> 100 µM		
CCC(C(=O)C(=O)OC)P1(=O)OC(C)(C)CN1C(C)(C)C (stereo not drawn)		> 100 µM		> 100 µM	> 100 µM	> 100 µM	> 100 µM	> 100 µM	> 100 µM	> 100 µM	
CN(C)CCC(=O)/C=C\c1ccccc1	30.7 µM	33.9 µM		30.9 µM	37 µM	30.9 µM	33.3 µM	32.9 µM	34 µM	> 100 µM	
c1c2c(cc(-n3nnc4c3CCCCCC4)c1-n1nnc3c1CCCCCC3)CCCCCC2	24.4 µM	23.6 µM		19 µM	38.7 µM	33.9 µM		25.4 µM	18.9 µM	32.1 µM	
CCOC(=O)C#Cc1ccccc1	80.1 µM	10.9 µM	82.3 µM	> 100 µM	> 100 µM	44.3 µM	11.7 µM	59.9 µM	2.11 µM		
O=C(N/N=C/c1ccc(Br)cc1)N/N=C/c1ccc(Br)cc1	17.4 µM	31.3 µM	10.8 µM	> 100 µM	19.8 µM	26.9 µM	5.11 µM	5.39 µM	30.5 µM		
O=c1cc(N2CCCC2)[nH]c(=O)n1-c1ccccc1	> 100 µM	> 100 µM		> 100 µM	> 100 µM	> 100 µM	> 100 µM	> 100 µM		> 100 µM	
C=C1c2nc3ccccc3n2C=C(c2ccc(Cl)cc2)N1c1ccc(OC)cc1	60 µM	25.9 µM		22.5 µM	15.8 µM	22.2 µM	46.2 µM	13.2 µM	19.4 µM	7.13 µM	
